Measurements as given in patent US7235577B1 (priority 2000, dated 2007).
Read-outs that look alike come from different tables or passages of the source.

Molecular target: human IKCa1 channel (Homo sapiens, UniProt O15554)
Test: cell-based
Protocol: COS-7 cells, maintained in Dulbecco's modified Eagle's medium (DMEM) containing 10% heat-inactivated fetal calf serum, 4 mM L-glutamine and 1 mM Na^+ pyruvate, were transiently transfected with hlKCa1.
Electrophysiological experiments were carried out in the whole-cell configuration of the patch-clamp technique using an EPC-9 amplifier (HEKA Elektronik, Lambrecht Germany) interfaced to a computer running acquisition and analysis software (Pulse and Pulsfit; HEKA Elektronik). Pipettes were pulled from soft glass capillaries, coated with Sylgard (Dow-Corning, Midland, Mich.), and fire polished to resistances of 2.0–4.5 MΩ measured in the bath. COS-7 cells were trypsinized and plated on glass coverslips 3 h before measurement. […] To prevent activation of the native chloride channels in COS-7 cells an aspartate Ringer solution was used as an external solution (160 mM Na^+ aspartate, 4.5 mM KCl, 2 mM CaCl2, 1 mM MgCl2, 5 mM HEPES, adjusted to pH 7.4 with NaOH, with an osmolarity of 290–310 mosM). 200 ms voltage ramps from −120 mV to 40 mV every 10 s were used. The holding potential in all experiments was −80 mV. Series resistance compensation was not employed. The reduction of slope conductance at −80 mV was used to determine the Kd-value by fitting the values to the Hill equation with a Hill coefficient of unity.

[1] = hIKCa1 in COS-7 cells, reduction of slope conductance at −80 mV, 1 μM free Ca++ in pipette
[2] = read-out: Kd for block of IKCa1, hIKCa1 in COS-7 cells, reduction of slope conductance at −80 mV, 1 μM free Ca++ in pipette

Sequence of human IKCa1 channel (O15554 whole entry): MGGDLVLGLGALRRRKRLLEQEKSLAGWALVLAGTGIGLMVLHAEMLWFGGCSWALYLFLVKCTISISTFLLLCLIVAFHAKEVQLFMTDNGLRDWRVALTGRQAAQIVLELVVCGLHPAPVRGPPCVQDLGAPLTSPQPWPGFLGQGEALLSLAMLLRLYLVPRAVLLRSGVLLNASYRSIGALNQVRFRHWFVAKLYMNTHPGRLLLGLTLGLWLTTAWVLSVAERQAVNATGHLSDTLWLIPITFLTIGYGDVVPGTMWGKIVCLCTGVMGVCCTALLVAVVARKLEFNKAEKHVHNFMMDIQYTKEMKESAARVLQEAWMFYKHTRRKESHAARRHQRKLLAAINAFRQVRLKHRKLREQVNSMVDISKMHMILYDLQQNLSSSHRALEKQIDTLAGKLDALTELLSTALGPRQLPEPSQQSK

| Structure (SMILES) | Kd [µM] | also measured |
| --- | --- | --- |
| OC(c1ccccc1)(c1cccc(Cl)c1)c1cccc(Cl)c1 [Compound T5, Bis-(3-chlorophenyl)phenyl methanol] |  | Kd for block of IKCa1 [1]: No effect at 1 μM |
| C[n+]1ccc(C(O)(c2ccccc2)c2ccccc2)cc1 [Compound T8] |  | Kd for block of IKCa1 [1]: No effect at 10 μM |
| Clc1ccc(C(c2ccccc2)(c2ccccc2)n2cccn2)cc1 [Compound T13, 1[(4-Chlorophenyl)diphenylmethyl]-1H-pyrazole] | 0.09 |  |
| OC(c1ccccc1)(c1ccc(F)cc1)c1cccs1 (stereo not shown) [Compound T14, (4-Fluorophenyl)(2-thienyl)phenyl methanol] | 0.8 |  |
| COc1ccc(C(O)(c2ccccc2)c2ccc(OC)cc2)cc1 [Compound T15, Bis-(4-methoxyphenyl)phenyl methanol] | 10 |  |
| COc1ccc(C(O)(c2ccc(OC)cc2)c2ccc(OC)cc2)cc1 [Compound T16, Tris-(4-methoxyphenyl) methanol] | 10 |  |
| COc1ccc(C(C#N)(c2ccccc2)c2ccc(OC)cc2)cc1 [Compound T17] |  | Kd [2]: 35 µM |
| COc1ccc(C(C#N)(c2ccc(OC)cc2)c2ccc(OC)cc2)cc1 [Compound T18] |  | Kd [2]: 40 µM |
| COc1ccc(C(c2ccc(OC)cc2)(c2ccc(OC)cc2)n2cccn2)cc1 [Compound T19, 1-[Tris(4-methoxyphenyl)methyl]-1H-pyrazole] |  | Kd for block of IKCa1 [1]: No effect at 1 μM |
| c1ccc(C(NCCN(CCNC(c2ccccc2)(c2ccccc2)c2ccccc2)CCNC(c2ccccc2)(c2ccccc2)c2ccccc2)(c2ccccc2)c2ccccc2)cc1 [Compound T20] |  | Kd for block of IKCa1 [1]: No effect at 1 μM |
| N#CC(c1ccccc1)(c1ccccc1)c1ccc(Cl)cc1 [Compound T26, 2-(4-Chlorophenyl)-2,2-diphenylacetonitrile] | 0.75 |  |
| Fc1ccc(C(c2ccccc2)(c2ccccc2)n2cccn2)cc1 [Compound T28, 1-[(4-Fluorophenyl)diphenylmethyl]-1H-pyrazole] | 0.2 |  |
| C[n+]1ccn(C(c2ccccc2)(c2ccccc2)c2ccccc2Cl)c1 [Compound T30] |  | Kd [2]: 10 µM |
| c1ccc(C(c2ccccc2)(c2cccs2)n2ccnc2)cc1 [Compound T37, 1-[Diphenyl(2-thienyl)methyl]-1H-imidazole] | 1 |  |
| c1ccc(C(c2ccccc2)(c2cccs2)n2cccn2)cc1 [Compound T38, 1-[Diphenyl(2-thienyl)methyl]-1H-pyrazole] | 1.1 |  |
| NC(c1ccccc1)(c1ccccc1)c1ccccc1Cl [Compound T41, (2-chlorophenyl)diphenylmethyl amine] |  | Kd [2]: 5 µM |
| NC(c1ccccc1)(c1ccccc1)c1ccc(F)cc1 [Compound T42, (4-Fluorophenyl)diphenylmethyl amine] |  | Kd [2]: 5 µM |
| OC(c1ccccc1)(c1cccs1)c1ccccc1Cl (stereo not shown) [Compound T43, (2-Chlorophenyl)(2-thienyl)phenyl methanol] | 0.75 |  |
| Fc1ccccc1C(c1ccccc1)(c1ccccc1)n1cccn1 [Compound T46, 1-[(2-Fluorophenyl)diphenylmethyl]-1H-pyrazole] | 0.04 | IKCa1 inhibition compared with clotrimazole (refers to TABLE 8): more potent inhibitors of IKCa1 channels than clotrimazole |
| NC(c1ccccc1)(c1ccccc1)c1ccccc1F [Compound T47, (2-Fluorophenyl)diphenylmethyl amine] |  | Kd [2]: 2 µM |
| OC(c1ccccc1)(c1ccccc1)c1ccccc1C(F)(F)F [Compound T54, Diphenyl(2-trifluoromethylphenyl) methanol] | 0.7 |  |
| OC(c1ccccc1)(c1ccccc1)c1ccc(C(F)(F)F)cc1 [Compound T55, Diphenyl(4-trifluoromethylphenyl) methanol] | 0.82 |  |
| OC(c1ccccc1)(c1ccccc1)c1cccc(C(F)(F)F)c1 [Compound T56, Diphenyl(3-trifluoromethylphenyl) methanol] | 0.65 |  |
| FC(F)(F)c1ccn(C(c2ccccc2)(c2ccccc2)c2ccccc2C(F)(F)F)n1 [Compound T59, 1-{Diphenyl[2-(trifluoromethyl)-phenyl]methyl}-3-(trifluoromethyl)-1H-pyrazole] | 25 |  |
